Experimental data taken from patent US8586708B2, “Monovalent streptavidin compositions” (Massachusetts Institute of Technology, priority 2005, dated 2013).
Read-outs that look alike come from different tables or passages of the source.

Legend:
[1] = Off-rate of 3H-biotin with cold biotin chase and precipitation; format: binding; details: 10 nM 3H-biotin, 1 μM streptavidin, 50 μM cold biotin, 37° C.; ± s.e.m.
Method: (Green, N. M. Methods in Enzymol. 184: 51-67, 1990). Dissociation was then initiated by addition of cold biotin at a final concentration of 50 μM and time-points taken over 5 hours at 37° C. 50 μL aliquots were removed and added to 200 μL 0.2M ZnSO4 chilled on ice, followed by 200 μL 0.2 M NaOH. The protein precipitate was pelleted by centrifugation at 16,500 g for 5 min, and ^3H-biotin in the supernatant was measured by liquid scintillation counting. Data were plotted as ln(fraction bound) versus time, and fit to a straight line by linear regression. Dissociation rates were deduced from the slope of the line and the equation: ln(fraction bound)=−koff(t) where fraction bound=(total ^3H-biotin−free ^3H-biotin at timepoint)/(total ^3H-biotin−free ^3H-biotin before cold biotin chase).

[2] = Stability of monovalent streptavidin to subunit exchange (SDS-PAGE); format: physicochemical; details: for A1D3 rearranged into D4: PBS
Method: Methods described in the Methods section above herein were used for the following production and testing of monovalent streptavidin. Tests were performed to determine whether monovalent streptavidin would rearrange its subunit composition over time.

[3] = Thermostability assay of tetramer (heat, SDS-PAGE); format: physicochemical; details: 3 min, PBS
Method: 2.3 μM wild-type streptavidin or chimeric streptavidin in PBS was heated at the indicated temperature for 3 min in a PTC-200 PCR machine (MJ Research; Waltham, Mass.) and then immediately placed on ice (Bayer, E. A. et al. Electrophoresis 17: 1319-1324, 1996). Samples were mixed with 6× SDS-PAGE loading buffer and loaded onto a 16% polyacrylamide gel.

[4] = tested on: biotinylated AP-CFP-TM on HeLa cells; assay: Staining of biotinylated AP-CFP-TM on HeLa cells with Alexa Fluor 568 conjugates; format: cell-based; details: 10 μg/mL Alexa Fluor 568 conjugate, 10 min at 4° C.
Method: (§1) Enzymatic biotinylation and imaging of HeLa transfectants were performed as previously described (Howarth, M. et al. Proc. Natl. Acad. Sci. USA 102: 7583-7588, 2005), except instead of 10 μM biotin and 1 mM ATP, we added 10 μM biotin-AMP (synthesized according to Coleman and Huang; Coleman, T. M. and Huang, F. Chem. Biol. 9: 1227-1236, 2002) to give equivalent biotinylation but minimizing the risk of purinoreceptor activation by ATP (Rathbone, M. P. et al., Prog. Neurobiol. 59: 663-690, 1999). […] Biotinylation of neurons was performed at day in vitro (DIV) 8 in Hanks' Balanced Salt Solution (HBSS) (Invitrogen) with 0.2 μM biotin ligase and 10 μM biotin-AMP for 5 min at 37° C. […] Neurons were washed with NeuroBasal media (Invitrogen) supplemented with B-27 (Invitrogen), 50 U/mL penicillin, 50 μg/mL streptomycin, and 0.2 mM L-glutamine and chased in the same medium for 0 or 2 hr at 37° C. Cells were then fixed in −20° C. methanol. […]
Images of HeLa cells were collected on a Zeiss Axiovert 200M inverted epifluorescence microscope using a 40× oil-immersion lens and a MicroMAX CCD camera (Roper Scientific; Tucson, Ariz.). CFP (420DF20 excitation, 450DRLP dichroic, 475DF40 emission) and Alexa568 (560DF20 excitation, 585DRLP dichroic, 605DF30 emission) images were collected and analyzed using OpenLab software (Improvision; Lexington, Mass.). Fluorescence images were background-corrected. […] Images were scaled to 16 bits and analyzed in Northern Eclipse (Empix Imaging; Ontario, Canada) with user-written software. […] Results were then calculated in terms of clusters per micrometer of dendrite. For assessment of pre-synaptic terminals, clusters were determined as before and average grey levels of clusters were compared between transfected dendrites and untransfected dendrites within the same field of view. […] “n” represents the number of transfected neurons for which clusters were measured. […]

[5] = tested on: AP-neuroligin-1 on hippocampal neurons; assay: Clustering of biotinylated AP-neuroligin-1 on hippocampal neurons; format: cell-based, rat; details: for AP-neuroligin-1 clusters/μm: two hour incubation at 37° C., ± s.e.m., n=9; for AP-neuroligin-1 staining pattern: zero hours
Method: HeLa cells were grown in Dulbecco's Modified Eagle Medium (DMEM) with 10% Fetal Calf Serum, 50 U/mL penicillin and 50 μg/mL streptomycin. HeLa stably expressing AP-CFP-TM or Ala-CFP-TM have been previously described (Howarth, M. et al. Proc. Natl. Acad. Sci. USA 102: 7583-7588, 2005). Dissociated primary neuronal cultures were prepared from Embryonic Day 18 or 19 (E18/19) rats and transfected with Lipofectamine 2000 at DIV6 as in Levinson et al. (Levinson, J. N. et al. J. Biol. Chem. 280: 17312-17319, 2005).
as §1, with “methanol. There was no signal from wild-type streptavidin labeling if neurons were instead transfected with Ala-neuroligin-1 containing a point mutation in AP, confirming the specificity of labeling (Howarth, M. et al. Proc. Natl. Acad. Sci. USA 102: 7583-7588, 2005). To observe synapse formation, cells were biotinylated and stained with streptavidin as above, biotinylation and streptavidin staining was repeated at 6 hr, and then after 24 hr total chase cells were fixed in methanol.” for “methanol.”
Images of HeLa cells were collected on a Zeiss Axiovert 200M inverted epifluorescence microscope using a 40× oil-immersion lens and a MicroMAX CCD camera (Roper Scientific; Tucson, Ariz.). CFP (420DF20 excitation, 450DRLP dichroic, 475DF40 emission) and Alexa568 (560DF20 excitation, 585DRLP dichroic, 605DF30 emission) images were collected and analyzed using OpenLab software (Improvision; Lexington, Mass.). Fluorescence images were background-corrected. […] Images were scaled to 16 bits and analyzed in Northern Eclipse (Empix Imaging; Ontario, Canada) with user-written software. […] Results were then calculated in terms of clusters per micrometer of dendrite. For assessment of pre-synaptic terminals, clusters were determined as before and average grey levels of clusters were compared between transfected dendrites and untransfected dendrites within the same field of view. […]

[6] = Kd of D4 by 3H-biotin binding and protein precipitation
Method: After incubation at room temperature for 20 hr, the protein was precipitated by adding 50 μL to 200 μL 0.2 M ZnSO4 followed by 200 μL 0.2 M NaOH. The protein precipitate was pelleted by centrifugation at 16,500 g for 5 min. The biotin bound by D4 was calculated from the total ^3H -biotin added minus the ^3H -biotin in the supernatant. The Kd was obtained using a nonlinear regression analysis (one-site binding hyperbola) with SigmaPlot (Systat Software; Point Richmond, Calif.).

biotinylated cells = assay: Binding to biotinylated cells; format: cell-based
[7] = literature value; read-out: Kd for biotin; cited from earlier work

Substance | off-rate from biotin [1] | Alexa staining of biotinylated AP-CFP-TM [4] | AP-neuroligin-1 clusters/μm [5] | AP-neuroligin-1 staining pattern [5] | further results
A1D3: chimeric streptavidin tetramer with one Alive (wild-type, His6-tagged) subunit and three Dead (N23A, S27D, S45A) subunits [Tetramer A1D3] | 6.14±0.19×10^−5 s^−1 | detected equally well | 0.087±0.021 clusters/μm | diffuse surface staining | A1D3 rearranged into D4 ([2]; 37° C. incubation for one day): 2%; Formation of A2D2 from subunit exchange ([2]; 37° C. one day or room temperature one week): not detected; A1D3 rearranged into D4 ([2]; room temperature incubation for one week): 3%; tetramer stability to heat denaturation ([3]; 100° C.): A significant fraction of A1D3 remained tetrameric; thermostability compared with wild-type streptavidin ([3]; various temperatures): little difference
D4: streptavidin with 4 dead subunits (N23A, S27D, S45A; SEQ ID NO:3) [Tetramer D4] |  | no detectable staining |  |  | biotin binding (in words) [6]: negligible biotin binding; Kd ([6]; 24 μM D4, 0-500 μM 3H-biotin, room temperature 20 hr, ± s.e.m.): 918 ± 0.0117 µM
N23A, S27D: double mutant streptavidin tetramer with one of the weakest reported affinities for biotin |  |  |  |  | binding to biotinylated cells (biotinylated cells): still bound; Kd [7]: 71 µM
wild-type streptavidin: wild-type core streptavidin tetramer with 4 biotin binding sites (SEQ ID NO:2) [reference compound] | 5.17±0.25×10^−5 s^−1 | detected equally well | 0.266±0.011 clusters/μm | diffuse surface staining | 
